Test results taken from PMC9226124, “Macrocycle-stabilization of its interaction with 14-3-3 increases plasma membrane localization and activity of CFTR” (Nature Communications, 2022).
pEC50: −log10 of the molar value. “And” between values parts separate entries of the source, which are not always exact repeats. Equal values may be shown once.

What was measured:
[1] = target: T1, 14-3-3β/CFTRpS753pS768 complex (Homo sapiens, UniProt P13569+P31946); assay: FP assay, 14-3-3β titration at constant compound concentration (apparent KD); format: binding
T1 construct: His6 (cleaved yes); made in house; peptide synthetic
T1 sequence (P31946 whole entry): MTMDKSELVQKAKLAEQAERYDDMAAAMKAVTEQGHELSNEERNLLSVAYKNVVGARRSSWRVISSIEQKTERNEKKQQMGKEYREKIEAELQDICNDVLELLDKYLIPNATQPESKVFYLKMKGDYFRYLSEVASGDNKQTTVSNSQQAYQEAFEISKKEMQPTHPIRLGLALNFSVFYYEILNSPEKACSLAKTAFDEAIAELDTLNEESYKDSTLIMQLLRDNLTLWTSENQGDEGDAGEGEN
T1 sequence (P13569 747-774 limits assumed): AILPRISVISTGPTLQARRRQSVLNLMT
Method: FC-A (100 µM) was added as a positive control and DMSO as the negative control. […] Background polarization was subtracted from all values, n = 3 technical replicates. […] Source data are provided as a Source Data file. […]
The FITC-labeled peptides were dissolved in FP buffer (10 mM HEPES pH 7.4, 150 mM NaCl, 0.1% Tween20, 1 mg/mL BSA) to a final concentration of 100 nM or 10 nM. […] The dilution series were made in 384 Corning Black Round Bottom well plates and their polarization was measured with a Tecan Infinite F500 plate reader (ex. = 485 nm, em. = 535 nm). The method of fitting of the curves was: “log(agonist) vs. response – Variable slope (four parameters)” from GraphPad Prism. The equation is Y = Bottom + (Top-Bottom)/(1 + 10^((LogEC50-X)*HillSlope)).
from the hit validation library.
f the compound, 100 µM FC-A, or both compound and FC-A, 100 µM each. Background polarization was subtracted f
rom all values, n=3 technical replicates.
Source data are provided as a Source Data file.

[2] = target: T1, 14-3-3β/CFTRpS753pS768 complex; assay: Dose-response fluorescence polarization (FP) assay, compound titration; format: binding; conditions: for pEC50: 14-3-3β 10 μM, labeled CFTRpS753pS768 100 nM, read-out: EC50; for FP signal: With 14-3-3
In short: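 Compounds were titrated in two-fold dilutions against 10 μM 14-3-3β and FITC-CFTR pS753pS768 peptide (100 nM or 10 nM). Buffer: 10 mM HEPES pH 7.4, 150 mM NaCl, 0.1% Tween20, 1 mg/mL BSA. Polarization was read at ex 485/em 535 nm, and EC50 was derived from a four-parameter variable-slope fit.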

[3] = CY compound (100 μM), 14-3-3β concentration 3.05176e-8 M
[4] = CY compound (100 μM), 14-3-3β concentration 2.44141e-7 M
[5] = CY compound (100 μM), 14-3-3β concentration 4.88281e-7 M
[6] = CY compound (100 μM), 14-3-3β concentration 7.8125e-6 M
[7] = CY compound (100 μM), 14-3-3β concentration 1.5625e-5 M
[8] = CY compound (100 μM), 14-3-3β concentration 3.125e-5 M
[9] = CY compound (100 μM), 14-3-3β concentration 6.25e-5 M
[10] = CY compound (100 μM), 14-3-3β concentration 0.000125 M
[11] = CY compound (100 μM), 14-3-3β concentration 0.00025 M
[12] = CY compound (100 μM), 14-3-3β concentration 0.0005 M
[13] = FC-A + CY compound, 14-3-3β concentration 6.10352e-8 M
[14] = FC-A + CY compound, 14-3-3β concentration 1.2207e-7 M
[15] = FC-A + CY compound, 14-3-3β concentration 2.44141e-7 M
[16] = FC-A + CY compound, 14-3-3β concentration 4.88281e-7 M
[17] = FC-A + CY compound, 14-3-3β concentration 9.76563e-7 M
[18] = FC-A + CY compound, 14-3-3β concentration 1.95313e-6 M
[19] = FC-A + CY compound, 14-3-3β concentration 3.90625e-6 M
[20] = FC-A + CY compound, 14-3-3β concentration 7.8125e-6 M
[21] = FC-A + CY compound, 14-3-3β concentration 1.5625e-5 M
[22] = FC-A + CY compound, 14-3-3β concentration 3.125e-5 M
[23] = FC-A + CY compound, 14-3-3β concentration 6.25e-5 M
[24] = FC-A + CY compound, 14-3-3β concentration 0.000125 M
[25] = FC-A + CY compound, 14-3-3β concentration 0.00025 M
[26] = FC-A + CY compound, 14-3-3β concentration 0.0005 M

## CC1NC(=O)C(CCCNC(=N)N)NC(=O)C2CCCN2Cc2cccc(c2)-c2ccccc2CNC(=O)C(CCCNC(=N)N)NC1=O (stereo not drawn) [CY007476]
[1]; CY compound (100 μM), 14-3-3β concentration 7.62939e-9 M
  Fluorescence polarization signal, 14-3-3β titration: 3.667 and 2.667 and 4.667
[1]; [3]
  Fluorescence polarization signal, 14-3-3β titration: 5.667 and 6.667
[1]; [4]
  Fluorescence polarization signal, 14-3-3β titration: 8.667 and 10.6667 and 11.6667
[1]; [5]
  Fluorescence polarization signal, 14-3-3β titration: 12.6667 and 17.6667 and 16.6667
[1]; [6]
  Fluorescence polarization signal, 14-3-3β titration: 36.6667 and 60.6667 and 59.6667
[1]; [7]
  Fluorescence polarization signal, 14-3-3β titration: 49.6667 and 67.6667 and 72.6667
[1]; [8]
  Fluorescence polarization signal, 14-3-3β titration: 68.6667 and 82.6667 and 79.6667
[1]; [9]
  Fluorescence polarization signal, 14-3-3β titration: 87.6667 and 91.6667 and 95.6667
[1]; [10]
  Fluorescence polarization signal, 14-3-3β titration: 105.667 and 110.667 and 108.667
[1]; [11]
  Fluorescence polarization signal, 14-3-3β titration: 127.667 and 126.667
[1]; [12]
  Fluorescence polarization signal, 14-3-3β titration: 145.667 and 146.667 and 147.667
[1]; FC-A + CY compound, 14-3-3β concentration 119.2 pM
  Fluorescence polarization signal, 14-3-3β titration: 1.667
[1]; FC-A + CY compound, 14-3-3β concentration 3.05176e-8 M
  Fluorescence polarization signal, 14-3-3β titration: 5.667 and 8.667
[1]; [13]
  Fluorescence polarization signal, 14-3-3β titration: 6.667 and 12.6667 and 9.667
[1]; [14]
  Fluorescence polarization signal, 14-3-3β titration: 20.6667 and 16.6667 and 13.6667
[1]; [15]
  Fluorescence polarization signal, 14-3-3β titration: 27.6667 and 26.6667
[1]; [16]
  Fluorescence polarization signal, 14-3-3β titration: 49.6667 and 43.6667
[1]; [17]
  Fluorescence polarization signal, 14-3-3β titration: 71.6667 and 68.6667 and 64.6667
[1]; [18]
  Fluorescence polarization signal, 14-3-3β titration: 94.6667 and 91.6667 and 86.6667
[1]; [19]
  Fluorescence polarization signal, 14-3-3β titration: 110.667 and 106.667 and 104.667
[1]; [20]
  Fluorescence polarization signal, 14-3-3β titration: 123.667 and 119.667 and 117.667
[1]; [21]
  Fluorescence polarization signal, 14-3-3β titration: 128.667 and 130.667
[1]; [22]
  Fluorescence polarization signal, 14-3-3β titration: 139.667 and 137.667 and 141.667
[1]; [23]
  Fluorescence polarization signal, 14-3-3β titration: 145.667 and 146.667 and 143.667
[1]; [24]
  Fluorescence polarization signal, 14-3-3β titration: 155.667 and 156.667
[1]; [25]
  Fluorescence polarization signal, 14-3-3β titration: 165.667 and 164.667 and 162.667
[1]; [26]
  Fluorescence polarization signal, 14-3-3β titration: 178.667 and 174.667 and 172.667
[2]
  pEC50: 3.83
[2]; compound 476.8 pM
  FP signal: 1
[2]; compound 953.7 pM
  FP signal: 3
[2]; compound 1.90735e-9 M
  FP signal: 2
[2]; compound 3.8147e-9 M
  FP signal: 5
[2]; compound 7.6294e-9 M
  FP signal: 5
[2]; compound 1.52588e-8 M
  FP signal: 4
[2]; compound 3.05176e-8 M
  FP signal: 6
[2]; compound 6.10352e-8 M
  FP signal: 6
[2]; compound 1.2207e-7 M
  FP signal: 3
[2]; compound 2.44141e-7 M
  FP signal: 4
[2]; compound 4.88281e-7 M
  FP signal: 4
[2]; compound 9.76563e-7 M
  FP signal: 5
[2]; compound 1.95313e-6 M
  FP signal: 5
[2]; compound 3.90625e-6 M
  FP signal: 6
[2]; compound 7.8125e-6 M
  FP signal: 10
[2]; compound 1.5625e-5 M
  FP signal: 13
[2]; compound 3.125e-5 M
  FP signal: 24
[2]; compound 6.25e-5 M
  FP signal: 59
[2]; compound 0.000125 M
  FP signal: 124
[2]; compound 0.00025 M
  FP signal: 186
[2]; compound 0.0005 M
  FP signal: 230
[2]; compound 0.001 M
  FP signal: 257

## CN1CC(=O)NC(CCCNC(=N)N)C(=O)NC(CCC(N)=O)C(=O)NC(CCCNC(=N)N)C(=O)NCc2ccccc2-c2cccc(c2)C1 (stereo not drawn) [CY007491]
[1]; [3]
  Fluorescence polarization signal, 14-3-3β titration: 2.667
[1]; CY compound (100 μM), 14-3-3β concentration 6.10352e-8 M
  Fluorescence polarization signal, 14-3-3β titration: 5.667 and 3.667 and 4.667
[1]; [4]
  Fluorescence polarization signal, 14-3-3β titration: 10.6667 and 8.667
[1]; [5]
  Fluorescence polarization signal, 14-3-3β titration: 20.6667 and 17.6667 and 18.6667
[1]; CY compound (100 μM), 14-3-3β concentration 9.76563e-7 M
  Fluorescence polarization signal, 14-3-3β titration: 35.6667 and 31.6667 and 32.6667
[1]; CY compound (100 μM), 14-3-3β concentration 1.95313e-6 M
  Fluorescence polarization signal, 14-3-3β titration: 46.6667 and 44.6667 and 41.6667
[1]; CY compound (100 μM), 14-3-3β concentration 3.90625e-6 M
  Fluorescence polarization signal, 14-3-3β titration: 61.6667 and 57.6667 and 56.6667
[1]; [6]
  Fluorescence polarization signal, 14-3-3β titration: 73.6667 and 74.6667 and 72.6667
[1]; [7]
  Fluorescence polarization signal, 14-3-3β titration: 84.6667 and 82.6667 and 83.6667
[1]; [8]
  Fluorescence polarization signal, 14-3-3β titration: 94.6667 and 91.6667 and 92.6667
[1]; [9]
  Fluorescence polarization signal, 14-3-3β titration: 107.667 and 108.667
[1]; [10]
  Fluorescence polarization signal, 14-3-3β titration: 115.667 and 120.667 and 113.667
[1]; [11]
  Fluorescence polarization signal, 14-3-3β titration: 128.667 and 129.667
[1]; [12]
  Fluorescence polarization signal, 14-3-3β titration: 146.667 and 147.667
[1]; FC-A + CY compound, 14-3-3β concentration 7.62939e-9 M
  Fluorescence polarization signal, 14-3-3β titration: 2 and 1
[1]; [13]
  Fluorescence polarization signal, 14-3-3β titration: 9 and 13 and 12
[1]; [14]
  Fluorescence polarization signal, 14-3-3β titration: 23
[1]; [15]
  Fluorescence polarization signal, 14-3-3β titration: 39 and 43 and 40
[1]; [16]
  Fluorescence polarization signal, 14-3-3β titration: 61 and 66 and 64
[1]; [17]
  Fluorescence polarization signal, 14-3-3β titration: 90 and 91
[1]; [18]
  Fluorescence polarization signal, 14-3-3β titration: 115 and 116
[1]; [19]
  Fluorescence polarization signal, 14-3-3β titration: 131 and 135 and 137
[1]; [20]
  Fluorescence polarization signal, 14-3-3β titration: 145 and 142 and 147
[1]; [21]
  Fluorescence polarization signal, 14-3-3β titration: 154 and 157
[1]; [22]
  Fluorescence polarization signal, 14-3-3β titration: 158 and 155 and 159
[1]; [23]
  Fluorescence polarization signal, 14-3-3β titration: 165 and 162
[1]; [24]
  Fluorescence polarization signal, 14-3-3β titration: 160 and 162 and 164
[1]; [25]
  Fluorescence polarization signal, 14-3-3β titration: 164 and 166 and 167
[1]; [26]
  Fluorescence polarization signal, 14-3-3β titration: 172 and 174 and 170
[2]
  pEC50: 3.61
[2]; compound 476.8 pM
  FP signal: 4
[2]; compound 953.7 pM
  FP signal: 5
[2]; compound 1.90735e-9 M
  FP signal: 5
[2]; compound 3.8147e-9 M
  FP signal: 6
[2]; compound 7.6294e-9 M
  FP signal: 4
[2]; compound 1.52588e-8 M
  FP signal: 6
[2]; compound 3.05176e-8 M
  FP signal: 3
[2]; compound 6.10352e-8 M
  FP signal: 5
[2]; compound 1.2207e-7 M
  FP signal: 8
[2]; compound 2.44141e-7 M
  FP signal: 6
[2]; compound 4.88281e-7 M
  FP signal: 5
[2]; compound 9.76563e-7 M
  FP signal: 5
[2]; compound 1.95313e-6 M
  FP signal: 6
[2]; compound 3.90625e-6 M
  FP signal: 7
[2]; compound 7.8125e-6 M
  FP signal: 7
[2]; compound 1.5625e-5 M
  FP signal: 9
[2]; compound 3.125e-5 M
  FP signal: 18
[2]; compound 6.25e-5 M
  FP signal: 35
[2]; compound 0.000125 M
  FP signal: 83
[2]; compound 0.00025 M
  FP signal: 142
[2]; compound 0.0005 M
  FP signal: 193
[2]; compound 0.001 M
  FP signal: 240
